Measurements taken from US20150265642A1, “NAD BIOSYNTHESIS AND PRECURSORS IN THE PREVENTION AND TREATMENT OF INFLAMMATION” (PRESIDENT AND FELLOWS OF HARVARD COLLEGE, priority 2013, published 2015).
Each block holds one compound with its values, some of them ahead of it.

Columns and labels:
C2C12 myoblasts = test: mtDNA content and ETC gene expression in C2C12 myoblasts; format: cell-based
Method: C2C12 cell line (ATCC) was cultured in low glucose Dulbecco's modified eagle medium (DMEM) (Invitrogen) supplemented with 10% FBS (Invitrogen) and a mix of antibiotic and antimycotic (Invitrogen). To inhibit SIRT1, cells were treated the vehicle (0.001% DMSO) or 10 μM EX-527 (Tocris) for 12 h. C2C12 myoblasts were infected with an empty or SIRT1 adenovirus as described before (Gerhart-Hines et al., 2007) and the media was replaced with fresh DMEM for additional 48 h, after that the cells were treated as described before. To test the effects of hypoxia and HIFα stabilization in genome asyncrony, C2C12 myoblasts were exposed to 1% oxygen for 16 h or treated with the vehicle (0.001% DMSO) or DMOG (Cayman) for the same period of time.
(§1) RNA from skeletal muscle tissue and C2C12 cells were extracted with RNeasy mini kit (Qiagen) according to the instructions and quantified using the NanoDrop 1000 spectrophotometer (Thermo Scientific). cDNA was synthesized with the iSCRIP cDNA synthesis kit (BioRad) using 600 ng of RNA. Quantitative RT-PCR reactions were performed using 1 μM of primers and LightCycler® 480 SYBR Green Master (Roche) on an LightCycler® 480 detection system (Roche). Calculations were performed by a comparative method (2-ΔCT) using 18S as an internal control. For mtDNA analysis, total DNA was extracted with DNeasy blood and tissue kit (Qiagen). mtDNA was amplified using primers specific for the mitochondrial cytochrome c oxidase subunit 2 (COX2) gene and normalized to genomic DNA by amplification of the ribosomal protein s18 (rps18) nuclear gene. Primers were designed using the IDT software (IDT) and the primer sequences can be found in Table 1.

TFAM promoter = TFAM promoter activity (luciferase assay) in primary WT myoblasts; format: cell-based, mouse
Method: TFAM promoter, VHL promoter, HRE and c-Myc activity were determined using a luciferase-based system. Luciferase activity was measured using the Dual-Luciferase Reporter Assay System (Promega) with Renilla as the reference.
TFAM promoter activity was evaluated using a TFAM promotes-luc plasmid. A fragment of the mouse Tfam promoter (1.4 kb upstream of the coding sequence) was cloned into a pGL4.15 vector (Promega). Luciferase activity was measured using the Dual-Luciferase Reporter Assay System (Promega) with Renilla as the reference 48 h after transfection.

HIF-1α = test: DMOG treatment of SIRT1-tg mice (HIF-1α immunoblot, qPCR, ATP content in gastrocnemius); format: in vivo; conditions: DMOG IP 300 mg/kg/day, 5 days
Method: Whole body SIRT1 overexpressor (SIRT1-tg) mice of 6 months of age were given interperitoneal (IP) injections of 300 mg DMOG/kg body weight per day or the equivalent volume of PBS for 5 consecutive days.
ATP content was measured with a commercial kit according to the manufacturer's instructions (Roche).
as §1
(§2) Protein extracts from tissue or C2C12 cells were obtained by lysis in ice-cold lysis buffer (150 mM NaCl, 10 mM Tris HCl (pH 7.4), 1 mM EDTA, 1 mM EGTA, 1% Triton X-100, 0.5% NP-40) supplemented with a cocktail of protease and phosphatase inhibitors (Roche). Protein content was determined by the Bradford protein assay (Biorad), and 50 μg proteins were run on SDS-PAGE under reducing conditions. The separated proteins were then electrophoretically transferred to a polyvinylidene difluoride membrane (Perkin-Elmer). […] The immunostaining was detected using horseradish peroxidase-conjugated anti-rabbit or anti-mouse immunoglobulin for 1 h at room temperature.

[1] = test system: inflammation related markers (TNFa, IL-6, IL-18); test: qPCR of inflammation related markers in gastrocnemius; format: in vivo, C57BL/6J mice; conditions: 6-month-old mice, DMOG IP 300 mg/kg/day, 5 days
Method: C57BL/6J mice of 3, 6, 22, or 24 months of age were obtained from the National Institutes of Aging mouse aging colony. Mice were acclimated for at least one-week prior to sacrifice. 3, 6, 22 and 24-month-old mice were given interperitoneal (IP) injections of 500 mg NMN/kg body weight per day or the equivalent volume of PBS for 7 consecutive days at 5:00 pm and 7:00 am on day 8 and sacrificed 4 hr after last injection. All animal studies followed the guidelines of and were approved by the Harvard Institutional Animal Care and Use Committee
C57BL/6J mice of 6 months of age were given interperitoneal (IP) injections of 300 mg DMOG/kg body weight per day or the equivalent volume of PBS for 5 consecutive days. All animal studies followed the guidelines of and were approved by the Harvard Institutional Animal Care and Use Committee
RNA from skeletal muscle and aorta were extracted with RNeasy mini kit (Qiagen) according to the instructions and quantified using the NanoDrop 1000 spectrophotometer (Thermo Scientific). cDNA was synthesized with the iSCRIP cDNA synthesis kit (BioRad) using 600 ng of RNA. Quantitative RT-PCR reactions were performed using 1 μM of primers and LightCycler® 480 SYBR Green Master (Roche) on an LightCycler® 480 detection system (Roche). Calculations were performed by a comparative method (2-ΔCT) using 18S as an internal control. […]

PGC-1α/β KO myotubes = test: Gene expression (qPCR) and HIF-1α immunoblot in PGC-1α/β KO myotubes; format: cell-based, mice; conditions: for effect on induction of mitochondrial ETC genes by SIRT1 overexpression: PGC-1α/β knockout myocytes/myotubes; for effect on induction of mitochondrial ETC genes by SIRT1 overexpression / effect on NMN-induced expression of mitochondrially-encoded ETC genes: 1 mM DMOG or 10 μM DFO, 12 hours; for effect on NMN-induced expression of mitochondrially-encoded ETC genes: primary PGC-1α/β KO myotubes; for nuclear- and mitochondrial-encoded genes: EX-527 48 h
Method: Primary myoblasts cells were isolated from WT, SIRT1 KO (Price et al., 2012) and PGC-1α/β KO (Zechner et al., 2010) mice as previously described (Price et al., 2012). WT and PGC-1α/β KO primary myoblasts were plated and allowed to differentiate into myotubes by replacing the media with low glucose DMEM supplemented with 2% horse serum (Sigma-Aldrich) for 4 days. After the differentiation the cells were infected with empty vector or flag-SIRT1 adenovirus as described before (Gerhart-Hines et al., 2007). Media was replaced with fresh DMEM supplemented with 2% horse serum (Sigma-Aldrich) for an additional 48 hr and, after that the cells were harvested for the different assays as described. To investigate the role of HIF-1α in genome asynchrony, PGC-1α/β KO primary myotubes were treated for 12 hours with 1 mM DMOG (Sigma) or 10 μM DFO (Sigma), 24 h after infection with empty vector of flag-SIRT1 adenovirus or after 12 h treatment with […] NMN (Sigma).
as §1, §2

primary myoblasts = test: NAD+/NADH ratio and HIF-1α immunoblot in primary WT myoblasts treated with pyruvate or lactate; format: cell-based, mice; conditions: 10 mM lactate, 24 h
Source text: FIG. 21 provides additional data related to the content of FIG. 14. FIG. 21A depicts HIF-1α target genes (PGK-1, Glut1, PDK1 and Vegfa) expression in gastrocnemius of WT and SIRT1 KO mice. Relative expression values were normalized to WT mice (n=5). FIG. 21B depicts hypoxia response element activity in primary myoblasts isolated from WT and SIRT1 KO mice and treated with or without DMOG. Relative luciferase activity was normalized to WT cells (n=6, *p<0.05 versus WT). FIG. 21C depicts a representative immunoblot of HIF-1α and Tubulin in PGC-1α/β KO myotubes treated with adenovirus overexpressing SIRT1 or empty vector as well as treatment with DMSO or with HIF stabilizing compound DMOG. FIG. 21D depicts NAD+/NADH ration measured in primary WT myoblasts treated with either 10 mM pyruvate, 10 mM lactate or vehicle for 24 h (n=4). […] FIG. 21J depicts mitochondrial DNA content analyzed by qPCR in control, HIF-1α DPA or HIF-2α DPA C2C12 cells treated with adenovirus overexpressing SIRT1 or empty vector. […] FIG. 21K depicts ARNT mRNA analyzed by qPCR in C2C12 cells infected with ARNT or nontargeting shRNA. […] FIG. 21L depicts mitochondrial DNA content analyzed by qPCR in C2C12 cells infected with ARNT or nontargeting shRNA. […] FIG. 21M depicts ND1, Cytb, COX1 and ATP6 mRNA analyzed by qPCR in C2C12 cells infected with ARNT or nontargeting shRNA. […] Values are expressed as mean±SEM. […]

[2] = C2C12 myoblasts treated with DMOG, 16 h

TFAM promoter activity with c-Myc consensus sequence mutation (TFAM promoter; DMOG, absence of the c-Myc binding site): does not have an additive effect
Compound: COC(=O)CNC(=O)C(=O)OC [DMOG, dimethyloxaloylglycine]
expression of mitochondrially-encoded ETC genes (C2C12 myoblasts; [2]): specific decline | mtDNA content (C2C12 myoblasts; [2]): specific decline | full length TFAM promoter activity (TFAM promoter; DMOG vs vehicle (DMSO)): reduces the full length TFAM promoter activity | HIF-1α protein (HIF-1α): increase HIF-1α | increase in ATP levels observed in SIRT1-tg mice (HIF-1α): abolished | increase in the expression of mitochondrial-encoded genes observed in SIRT1-tg mice (HIF-1α): abolished the increase | inflammation related markers (TNFalpha, IL-6, Il-1b and IL-18) in the skeletal muscle [1]: induces inflammatory markers in the skeletal muscle | effect on NAD (pyruvate) mediated increases in mitochondrial-encoded genes (PGC-1α/β KO myotubes; PGC-1α/β KO cells, pyruvate in the presence of DMOG): can be inhibited | HIF-1α protein (PGC-1α/β KO myotubes; PGC-1α/β KO myotubes, DMOG (FIG. 21C)): stabilizes HIF-1α protein | effect on induction of mitochondrial ETC genes by SIRT1 overexpression (PGC-1α/β KO myotubes): completely blocked | expression of mitochondrial-encoded genes (PGC-1α/β KO myotubes; PGC-1α/β knockout myotubes, DMOG compared to vehicle control): induced a decline | effect on NMN-induced expression of mitochondrially-encoded ETC genes (PGC-1α/β KO myotubes): completely abolished

Compound: CC(=O)N(O)CCCCCNC(=O)CCC(=O)N(O)CCCCCNC(=O)CCC(=O)N(O)CCCCCN [DFO, desferrioxamine]
effect on induction of mitochondrial ETC genes by SIRT1 overexpression (PGC-1α/β KO myotubes): completely blocked | effect on NMN-induced expression of mitochondrially-encoded ETC genes (PGC-1α/β KO myotubes): completely abolished

Compound: CC(O)C(=O)O (centres unmarked) [lactate]
HIF-1α protein (primary myoblasts): induces HIF-1α protein stabilization | NAD+/NADH ratio (primary myoblasts): decreasing

Compound: NC(=O)C1CCCc2c1[nH]c1ccc(Cl)cc21 (centres unmarked) [EX-527]
genome asynchrony (C2C12 myoblasts; C2C12 cells, 10 μM EX-527, 12 h): induced | nuclear- and mitochondrial-encoded genes (PGC-1α/β KO myotubes; PGC-1α/β KO myotubes reconstituted with PGC-1α T177A/S538A mutant): only the mitochondrial-encoded genes decreased | nuclear- and mitochondrial-encoded genes (PGC-1α/β KO myotubes; PGC-1α/β KO myotubes reconstituted with WT PGC-1α): decreased both nuclear- and mitochondrial-encoded genes
